# Experimental data: publication PMC6112376, “Comprehensive Analyses and Prioritization of Tox21 10K Chemicals Affecting Mitochondrial Function by in-Depth Mechanistic Studies” (Environmental Health Perspectives, 2018)
# Like-named read-outs stand apart in the source and are kept apart here.
# Assays:
# [1] = test system: HeLa cells expressing YFP-Parkin; assay: Parkin translocation assay; assay type: cell-based, human
# rat primary hepatocytes [2] = assay: MMP assay in rat primary hepatocytes; settings: Rattus norvegicus, Hepatocyte
# HepG2 cells [3] = assay: Intracellular ATP content (cell viability) assay; assay type: cell-based, human; settings: for IC50: Homo sapiens, HepG2, 40 h
# HepG2 cells [4] = assay: cells; settings: Homo sapiens; for Emax: HepG2, read-out: MMP assays efficacy (%) HepG2
# [5] = test system: Caenorhabditis elegans (Bristol N2); assay: C. elegans larval development and growth assay; settings: for effect on larval growth (in words): 0.5–100μM
# [6] = test system: isolated rat liver mitochondria; assay: Oxygen consumption, Clark-type oxygen electrode; assay type: biochemical
# [7] = test system: Caenorhabditis elegans strain PE255; assay: In vivo C. elegans ATP status assay; settings: for effect on ATP content (in words): 0.5–100μM; for minimal effective concentration: Caenorhabditis elegans, read-out: LEC LUM: lowest effect concentration for luminescence, a measure of nematode ATP content
# HepG2 cells [8] = assay: ROS-Glo hydrogen peroxide (ROS) assay; assay type: cell-based, human
# [9] = test system: Nrf2/ARE (ARE-bla HepG2 cells); assay: ARE β-lactamase reporter gene assay; assay type: cell-based, human; settings: Homo sapiens, HepG2; 16 h incubation; mean±SD of three experiments; read-out: ARE (HepG2) EC50
# HepG2 cells [10] = settings: cited from earlier work; for IC50: read-out: MMP assays IC50 (µM), qHTS-HepG2
# [11] = test system: p53 (p53-bla HCT-116 cells); assay: p53 β-lactamase reporter gene assay; assay type: cell-based, human; settings: 16 h incubation; mean±SD of three experiments
# hNSC = assay: MMP assay in human neural stem cells (hNSC); assay type: cell-based; settings: Homo sapiens, Neural stem cell, 1 h, read-out: hNSC IC50 (MMP)
# rat primary hepatocytes [12] = test system: rat primary hepatocytes
# [13] = 1 h, read-out: Rat hepatocytes IC50 (MMP)
# [14] = read-out: MMP assays IC50 (µM) Rat Hepatocytes
# [15] = HepG2, 1 h, read-out: HepG2 IC50 Galactose (MMP)
# [16] = HepG2, 1 h, read-out: HepG2 IC50 Glucose (MMP)
# [17] = HepG2, read-out: MMP assays IC50 (µM) HepG2
smiles,measurement,setting,value
"CO[C@H]1/C=C/O[C@@]2(C)Oc3c(C)c(O)c4c(O)c(c(/C=N/N5CCN(C6CCCC6)CC5)c(O)c4c3C2=O)NC(=O)/C(C)=C\C=C\[C@H](C)[C@H](O)[C@@H](C)[C@@H](O)[C@@H](C)[C@H](OC(C)=O)[C@@H]1C [Rifapentine, reference compound]",Parkin recruitment,[1],Inactive
same,IC50,rat primary hepatocytes [2]; [13],5.94 µM
same,IC50,rat primary hepatocytes [2]; [14],0.62 ± 0.55 µM
same,IC50,"HepG2 cells [3]; read-out: ATP (HepG2, galactose) IC50",36 µM
same,IC50,"HepG2 cells [3]; read-out: ATP (HepG2, glucose) IC50",43.4 µM
same,IC50,HepG2 cells [4]; [15],17.7 µM
same,IC50,HepG2 cells [4]; [16],13.9 µM
same,IC50,HepG2 cells [4]; [17],3.88 µM
same,Emax,HepG2 cells [4],101%
same,effect on larval growth (in words),[5],did not affect growth
same,Potential Mechanism,[6],Inactive
same,"I-ADP, % of control (O2 consumption rate)",[6]; 4 µM,88 (48.1) % of control
same,"I-sub, % of control (O2 consumption rate)",[6]; 4 µM,98 (12.8) % of control
same,"II-ADP, % of control (O2 consumption rate)",[6]; 4 µM,94 (82.6) % of control
same,"II-sub, % of control (O2 consumption rate)",[6]; 4 µM,92 (22.7) % of control
same,"I-ADP, % of control (O2 consumption rate)",[6]; 20 µM,86 (47.1) % of control
same,"I-sub, % of control (O2 consumption rate)",[6]; 20 µM,127 (16.7) % of control
same,"II-ADP, % of control (O2 consumption rate)",[6]; 20 µM,85 (75.2) % of control
same,"II-sub, % of control (O2 consumption rate)",[6]; 20 µM,101 (24.8) % of control
same,effect on ATP content (in words),[7],statistically significant decreases in ATP content
same,minimal effective concentration,[7],100 µM
same,ROS (HepG2) EC50,HepG2 cells [8],Inactive
same,EC50,[9],29.3 ± 7.09 µM
same,MMP assays efficacy (%) qHTS-HepG2,HepG2 cells [10],-104±16%
same,IC50,HepG2 cells [10],1.46 ± 0.26 µM
same,p53 (HCT-116) EC50,[11],Inactive
same,IC50,hNSC,8.07 µM
same,Rat hepatocytes (efficacy) (MMP),rat primary hepatocytes [12],5.94±1.48 ( −73.4±10.2 ) %
O=C(Nc1ccccc1)Nc1cnns1 [Thidiazuron],Parkin recruitment,[1],Inactive
same,IC50,rat primary hepatocytes [2]; [13],14.7 µM
same,IC50,rat primary hepatocytes [2]; [14],4.56 ± 2.78 µM
same,"ATP (HepG2, galactose) IC50",HepG2 cells [3],Inactive
same,"ATP (HepG2, glucose) IC50",HepG2 cells [3],Inactive
same,IC50,HepG2 cells [4]; [15],14.6 µM
same,IC50,HepG2 cells [4]; [16],12 µM
same,IC50,HepG2 cells [4]; [17],6.31 µM
same,Emax,HepG2 cells [4],104%
same,EXT: mean difference in nematode size relative to plate controls,[5]; 0.5 µM,0.1764
same,EXT: mean difference in nematode size relative to plate controls,[5]; 1 µM,0.07124
same,EXT: mean difference in nematode size relative to plate controls,[5]; 5 µM,0.08978
same,EXT: mean difference in nematode size relative to plate controls,[5]; 10 µM,0.07446
same,EXT: mean difference in nematode size relative to plate controls,[5]; 25 µM,0.09242
same,EXT: mean difference in nematode size relative to plate controls,[5]; 50 µM,0.2069
same,EXT: mean difference in nematode size relative to plate controls,[5]; 75 µM,0.07987
same,effect on larval growth (in words),[5],did not affect growth
same,Potential Mechanism,[6],Uncoupler
same,"I-ADP, % of control (O2 consumption rate)",[6]; 0.16 µM,93 (51.1) % of control
same,"I-sub, % of control (O2 consumption rate)",[6]; 0.16 µM,104 (13.6) % of control
same,"II-ADP, % of control (O2 consumption rate)",[6]; 0.16 µM,91 (80.1) % of control
same,"II-sub, % of control (O2 consumption rate)",[6]; 0.16 µM,100 (24.5) % of control
same,"I-ADP, % of control (O2 consumption rate)",[6]; 0.8 µM,74 (40.3) % of control
same,"I-sub, % of control (O2 consumption rate)",[6]; 0.8 µM,95 (12.4) % of control
same,"II-ADP, % of control (O2 consumption rate)",[6]; 0.8 µM,93 (82.2) % of control
same,"II-sub, % of control (O2 consumption rate)",[6]; 0.8 µM,106 (26.1) % of control
same,"I-ADP, % of control (O2 consumption rate)",[6]; 4 µM,87 (47.5) % of control
same,"I-sub, % of control (O2 consumption rate)",[6]; 4 µM,134 (17.5) % of control
same,"II-ADP, % of control (O2 consumption rate)",[6]; 4 µM,95 (83.6) % of control
same,"II-sub, % of control (O2 consumption rate)",[6]; 4 µM,119 (29.3) % of control
same,"I-ADP, % of control (O2 consumption rate)",[6]; 20 µM,99 (54.4) % of control
same,"I-sub, % of control (O2 consumption rate)",[6]; 20 µM,311 (40.8) % of control
same,"II-ADP, % of control (O2 consumption rate)",[6]; 20 µM,104 (92.1) % of control
same,"II-sub, % of control (O2 consumption rate)",[6]; 20 µM,269 (66.2) % of control
same,LUM: mean difference in luminescence (ATP content) relative to plate controls,[7]; 0.5 µM,0.0432
same,LUM: mean difference in luminescence (ATP content) relative to plate controls,[7]; 1 µM,0.1041
same,LUM: mean difference in luminescence (ATP content) relative to plate controls,[7]; 5 µM,0.03776
same,LUM: mean difference in luminescence (ATP content) relative to plate controls,[7]; 10 µM,0.1711
same,LUM: mean difference in luminescence (ATP content) relative to plate controls,[7]; 25 µM,0.3608
same,LUM: mean difference in luminescence (ATP content) relative to plate controls,[7]; 50 µM,0.588
same,LUM: mean difference in luminescence (ATP content) relative to plate controls,[7]; 75 µM,0.6504
same,LUM: mean difference in luminescence (ATP content) relative to plate controls,[7]; 100 µM,0.4761
same,effect on ATP content (in words),[7],statistically significant decreases in ATP content
same,minimal effective concentration,[7],50 µM
same,ROS (HepG2) EC50,HepG2 cells [8],Inactive
same,EC50,[9],27.3 ± 9.74 µM
same,MMP assays efficacy (%) qHTS-HepG2,HepG2 cells [10],-126±9%
same,IC50,HepG2 cells [10],3.43 ± 0.73 µM
same,p53 (HCT-116) EC50,[11],Inactive
same,IC50,hNSC,8.39 µM
same,MMP assays efficacy (%) Rat Hepatocytes,rat primary hepatocytes [12],-136±46%
same,Rat hepatocytes (efficacy) (MMP),rat primary hepatocytes [12],14.7±2.52 ( −98.5±15.2 ) %
